These results are taken from ChEMBL document CHEMBL1125669, “Synthesis of potential dual-acting radiation sensitizer antineoplastic agents: 2,2-dimethylphosphoraziridines containing 2-nitroimidazoles or other electron-affinic moieties” (1991).

Holding throughout (assay type): functional
Experiment [1] relates to Mus musculus. Description: In vivo antitumor activity against P-388 leukemia in CDF1 mice at 32 mg or 84 umol by ip administration expressed as average wt. change determined between day 0 and day 6 of experiment.
For experiment [2], the system named is Mus musculus. Description: In vivo antitumor activity against P-388 leukemia in CDF1 mice at 8 mg or 21 umol by ip administration expressed as median survival time of drug treated mice/median survival time of control mice x100.
Experiment [3] deals with Mus musculus. Description: In vivo antitumor activity against P-388 leukemia in CDF1 mice at 64 mg or 167 umol by ip administration expressed as median survival time of drug treated mice/median survival time of control mice x100.
The test system of experiment [4] is Mus musculus. In words: In vivo antitumor activity against P-388 leukemia in CDF1 mice at 256 mg or 670 umol by ip administration expressed as median survival time of drug treated mice/median survival time of control mice x100.
Experiment [5] relates to Mus musculus. Description: In vivo antitumor activity against P-388 leukemia in CDF1 mice at 128 mg or 335 umol by ip administration expressed as median survival time of drug treated mice/median survival time of control mice x100.
In experiment [6] the test system is Mus musculus. Description: In vivo antitumor activity against P-388 leukemia in CDF1 mice at 128 mg or 335 umol by ip administration expressed as average wt. change determined between day 0 and day 6 of experiment.
For experiment [7], the system named is Mus musculus. In words: In vivo antitumor activity against P-388 leukemia in CDF1 mice at 64 mg or 167 umol by ip administration expressed as average wt. change determined between day 0 and day 6 of experiment.
Experiment [8] concerns Mus musculus. In words: In vivo antitumor activity against P-388 leukemia in CDF1 mice at 32 mg or 84 umol by ip administration expressed as median survival time of drug treated mice/median survival time of control mice x100.
The test system of experiment [9] is Mus musculus. In words: In vivo antitumor activity against P-388 leukemia in CDF1 mice at 16 mg or 42 umol by ip administration expressed as median survival time of drug treated mice/median survival time of control mice x100.
The test system of experiment [10] is Mus musculus. Description: In vivo antitumor activity against P-388 leukemia in CDF1 mice at 8 mg or 21 umol by ip administration expressed as average wt. change determined between day 0 and day 6 of experiment.
In experiment [11] the test system is Mus musculus. Description: In vivo antitumor activity against P-388 leukemia in CDF1 mice at 16 mg or 42 umol by ip administration expressed as average wt. change determined between day 0 and day 6 of experiment.
Experiment [12] has as its system Mus musculus. In words: In vivo antitumor activity against P-388 leukemia in CDF1 mice at 256 mg or 670 umol by ip administration expressed as average wt. change determined between day 0 and day 6 of experiment.
The test system of experiment [13] is Mus musculus. Description: effect of drug treatment in combination with gamma radiation on P-388 leukemia in mice at 120 mg/kg and 600R expressed as average weight change.
The subject of experiment [14] is Mus musculus. In words: effect of drug treatment in combination with gamma radiation on P-388 leukemia in mice at 120 mg/kg and 400R expressed as average weight change.
In experiment [15] the test system is Mus musculus. Description: effect of drug treatment in combination with gamma radiation on P-388 leukemia in mice at 120 mg/kg and 200R expressed as median survival time of drug treated mice/median survival time of control mice x100.
Experiment [16] has as its system Mus musculus. Description: effect of drug treatment in combination with gamma radiation on P-388 leukemia in mice at 120 mg/kg and 400R expressed as median survival time of drug treated mice/median survival time of control mice x100.
The subject of experiment [17] is Mus musculus. In words: In vivo antitumor activity against P-388 leukemia in CDF1 mice at 200 mg or 861 umol by ip administration expressed as median survival time of drug treated mice/median survival time of control mice x100.
The test system of experiment [18] is Mus musculus. Description: effect of drug treatment in combination with gamma radiation on P-388 leukemia in mice at 120 mg/kg and 200R expressed as average weight change.
For experiment [19], the system named is Mus musculus. Description: effect of drug treatment in combination with gamma radiation on P-388 leukemia in mice at 120 mg/kg and 0R expressed as median survival time of drug treated mice/median survival time of control mice x100.
For experiment [20], the system named is Mus musculus. Description: effect of drug treatment in combination with gamma radiation on P-388 leukemia in mice at 120 mg/kg and 600R expressed as median survival time of drug treated mice/median survival time of control mice x100.
Experiment [21] concerns Mus musculus. Description: In vivo antitumor activity against P-388 leukemia in CDF1 mice at 100 mg or 430 umol by ip administration expressed as median survival time of drug treated mice/median survival time of control mice x100.
The subject of experiment [22] is Mus musculus. In words: In vivo antitumor activity against P-388 leukemia in CDF1 mice at 200 mg or 861 umol by ip administration expressed as average wt. change determined between day 0 and day 6 of experiment.
Experiment [23] relates to Mus musculus. Description: effect of drug treatment in combination with gamma radiation on P-388 leukemia in mice at 120 mg/kg and 0R expressed as average weight change.
For experiment [24], the system named is Mus musculus. In words: In vivo antitumor activity against P-388 leukemia in CDF1 mice at 100 mg or 430 umol by ip administration expressed as average wt. change determined between day 0 and day 6 of experiment.
The test system of experiment [25] is Mus musculus. In words: In vivo antitumor activity against P-388 leukemia in CDF1 mice at 64 mg or 165 umol by ip administration expressed as median survival time of drug treated mice/median survival time of control mice x100.
The test system of experiment [26] is Mus musculus. Description: In vivo antitumor activity against P-388 leukemia in CDF1 mice at 128 mg or 330 umol by ip administration expressed as average wt. change determined between day 0 and day 6 of experiment.
The subject of experiment [27] is Mus musculus. Description: In vivo antitumor activity against P-388 leukemia in CDF1 mice at 256 mg or 661 umol by ip administration expressed as median survival time of drug treated mice/median survival time of control mice x100.
For experiment [28], the system named is Mus musculus. Description: In vivo antitumor activity against P-388 leukemia in CDF1 mice at 128 mg or 330 umol by ip administration expressed as median survival time of drug treated mice/median survival time of control mice x100.
Experiment [29] relates to Mus musculus. In words: In vivo antitumor activity against P-388 leukemia in CDF1 mice at 32 mg or 83 umol by ip administration expressed as median survival time of drug treated mice/median survival time of control mice x100.
In experiment [30] the test system is Mus musculus. In words: In vivo antitumor activity against P-388 leukemia in CDF1 mice at 16 mg or 41 umol by ip administration expressed as median survival time of drug treated mice/median survival time of control mice x100.
The subject of experiment [31] is Mus musculus. Description: In vivo antitumor activity against P-388 leukemia in CDF1 mice at 16 mg or 41 umol by ip administration expressed as average wt. change determined between day 0 and day 6 of experiment.
Experiment [32] has as its system Mus musculus. Description: In vivo antitumor activity against P-388 leukemia in CDF1 mice at 32 mg or 83 umol by ip administration expressed as average wt. change determined between day 0 and day 6 of experiment.
Experiment [33] deals with Mus musculus. In words: In vivo antitumor activity against P-388 leukemia in CDF1 mice at 64 mg or 165 umol by ip administration expressed as average wt. change determined between day 0 and day 6 of experiment.
Experiment [34] deals with Mus musculus. Description: In vivo antitumor activity against P-388 leukemia in CDF1 mice at 256 mg or 661 umol by ip administration expressed as average wt. change determined between day 0 and day 6 of experiment.
Experiment [35] has as its system Mus musculus. Description: In vivo antitumor activity against P-388 leukemia in CDF1 mice at 400 mg or 1453 umol by ip administration expressed as average wt. change determined between day 0 and day 6 of experiment.
Experiment [36] has as its system Mus musculus. In words: In vivo antitumor activity against P-388 leukemia in CDF1 mice at 50 mg or 182 umol by ip administration expressed as median survival time of drug treated mice/median survival time of control mice x100.
In experiment [37] the test system is Mus musculus. In words: In vivo antitumor activity against P-388 leukemia in CDF1 mice at 50 mg or 182 umol by ip administration expressed as average wt. change determined between day 0 and day 6 of experiment.
Experiment [38] has as its system Mus musculus. Description: In vivo antitumor activity against P-388 leukemia in CDF1 mice at 100 mg or 363 umol by ip administration expressed as average wt. change determined between day 0 and day 6 of experiment.
The test system of experiment [39] is Mus musculus. In words: In vivo antitumor activity against P-388 leukemia in CDF1 mice at 200 mg or 727 umol by ip administration expressed as median survival time of drug treated mice/median survival time of control mice x100.
Experiment [40] deals with Mus musculus. Description: In vivo antitumor activity against P-388 leukemia in CDF1 mice at 200 mg or 727 umol by ip administration expressed as average wt. change determined between day 0 and day 6 of experiment.
Experiment [41] deals with Mus musculus. Description: In vivo antitumor activity against P-388 leukemia in CDF1 mice at 100 mg or 363 umol by ip administration expressed as median survival time of drug treated mice/median survival time of control mice x100.
The test system of experiment [42] is Mus musculus. Description: In vivo antitumor activity against P-388 leukemia in CDF1 mice at 400 mg or 1453 umol by ip administration expressed as median survival time of drug treated mice/median survival time of control mice x100.

In the case of `CC1(C)CN1P(=O)(NC(=O)OCc1ccccc1[N+](=O)[O-])N1CC1(C)C` (stereo unspecified), the Average weight change in the experiment with Mus musculus [1] is recorded as -0.4 g; in the experiment with Mus musculus [6], -1.1 g; in the experiment on Mus musculus [7], -1.1 g; in the experiment on Mus musculus [10] it was 0.6 g; with Mus musculus [11], 0 g; in the experiment on Mus musculus [12], -1.5 g. The T/C in the experiment with Mus musculus [2] is on record as 106%; in the experiment on Mus musculus [3], 129%; in the experiment on Mus musculus [4], 153%; in the experiment on Mus musculus [5] it was 141%; in the experiment on Mus musculus [8], 118%; in the experiment on Mus musculus [9] it was 106%.

On to `CCOP(=O)(N1CC1(C)C)N1CC1(C)C` (stereo unspecified), for which the Average weight change is -3.58 g in the experiment with Mus musculus [13]; -0.93 g in the experiment on Mus musculus [14]; 0.33 g with Mus musculus [18]; -5.2 g with Mus musculus [22]; 0.83 g in the experiment on Mus musculus [23]; -2.6 g in the experiment with Mus musculus [24]. Besides, the T/C in the experiment with Mus musculus [15] worked out at 250%; with Mus musculus [16], 160%; in the experiment on Mus musculus [17], 433%; in the experiment with Mus musculus [19], 400%; in the experiment on Mus musculus [20] it was 80%; with Mus musculus [21], 289%.

As to `CC1(C)CN1P(=O)(NC(=O)OCc1ccc([N+](=O)[O-])cc1)N1CC1(C)C` (stereo unspecified), the Average weight change is 2.1 g in the experiment with Mus musculus [1]; 2 g in the experiment on Mus musculus [6]; 1.4 g in the experiment on Mus musculus [7]; 1.4 g in the experiment with Mus musculus [10]; 1.2 g in the experiment on Mus musculus [11]; 0.6 g in the experiment with Mus musculus [12]. Moreover, the T/C in the experiment on Mus musculus [2] is 113%; in the experiment with Mus musculus [3] it was 113%; in the experiment on Mus musculus [4], 119%; in the experiment with Mus musculus [5], 113%; in the experiment with Mus musculus [8], 106%; in the experiment with Mus musculus [9], 113%.

For `COCC(Cn1ccnc1[N+](=O)[O-])OP(=O)(N1CC1(C)C)N1CC1(C)C` (stereo unspecified), the T/C in the experiment with Mus musculus [25] worked out at 133%; with Mus musculus [2], 106%; with Mus musculus [27], 200%; in the experiment on Mus musculus [28], 150%; in the experiment on Mus musculus [29], 122%; in the experiment with Mus musculus [30], 100%. Besides, the Average weight change is on record as -0.3 g in the experiment on Mus musculus [26]; 1.2 g in the experiment on Mus musculus [10]; 0.8 g in the experiment with Mus musculus [31]; 0.4 g in the experiment with Mus musculus [32]; 0.2 g with Mus musculus [33]; -1.5 g in the experiment with Mus musculus [34].

Turning to `CCOC(=O)NP(=O)(N1CC1(C)C)N1CC1(C)C` (stereo unspecified) [METUREDEPA], the Average weight change with Mus musculus [35] is -1.3 g; in the experiment on Mus musculus [37], -0.7 g; with Mus musculus [38] it was -0.4 g; with Mus musculus [40] it was -0.2 g. The T/C turned out to be 163% in the experiment on Mus musculus [36], 231% with Mus musculus [39], 181% in the experiment with Mus musculus [41] and 244% with Mus musculus [42].

The T/C is the result in the treated group divided by that in the control group, in per cent.
